In US4110474A, “Tetramethylpentane blood substitutes” (Suntech, Inc., priority 1977, dated 1978):
Read-outs that look alike come from different tables or passages of the source.

Details: mouse, in vivo
Protocol: Mice were injected with the various emulsions. The mice were killed at intervals thereafter, the liver and spleen analyzed, and the percentage of original amount of PF material injected and still in the liver and spleen was determined.

perfluoromethylpentane
body retention: lack body retention characteristics
% FC (Of Injected Dose) in LIVER (2880 min): 15%
% FC (Of Injected Dose) in SPLEEN (2880 min): 1.4%
% FC (Of Injected Dose) in LIVER (10080 min): 12%
% FC (Of Injected Dose) in SPLEEN (10080 min): 6%
% FC (Of Injected Dose) in LIVER (20160 min): 9.3%
% FC (Of Injected Dose) in SPLEEN (20160 min): 9.2%
% FC (Of Injected Dose) in LIVER (41760 min): 2.3%
% FC (Of Injected Dose) in SPLEEN (41760 min): 2.7%
